Patent publication US20040147595A1, “Biofilm degrading or sloughing compositions and methods” (priority 2001, published 2004)
Entries after “also recorded” stand apart in the source; their conditions may differ. Like-named read-outs stand apart in the source and are kept apart here.

Assays:
Type in all cases: cell-based, Pseudomonas aeruginosa
P. aeruginosa PAO1 = assay: Growth (optical density) of P. aeruginosa PAO1
Protocol: AHL and furanone bioassay. Strains were grown exponentially in LB or ABt medium supplemented with 0.5% glucose at 30° C., shading at 250 rpm. At an optical density of approximately 0.8. the cultures were diluted and split into subcultures in glass culture flasks. AHLs and furanone 56 were added to appropriate concentrations and the cultures were further incubated at 30° C. under vigorous shaking. Culture samples were retrieved at various time intervals and green fluorescence was measured with a fluorometer (model RF-1501, Shimadzu, Tokyo, Japan) set at an excitation wavelength of 475 nm and emission wavelength of 515 nm. Relative fluorescence was calculated as green fluorescence normalized to 1 ml culture divided by the optical density (OD600 nm.
To determine if the furanone compound worked specifically on the las quorum sensor and not indirectly by disruption of primary metabolic functions, we followed growth as optical density of P. aeruginosa PAO1 in the presence of furanone 56. […] Further, we tested whether the furanone affected P. aeruginosa protein synthesis. The wild type P. aeruginosa PAO1 strain containing the consitutive Gfp-expression vector pMH306 was grown in the presence of furanone 56 at concentrations from 0 to 10 μ/ml. Gfp-expression (fluorescence/OD600 nm) was throughout the growth cycle unaffected by the presence of furanone compound (data not shown).

chitinase = assay: Virulence factor production: chitinase activity of PAO-JP2 supernatant; conditions: PAO-JP2, 70 nm OdDHL plus 3 μg/ml and 5 μg/ml furanone 56
Protocol: The chitinase activity assay was performed as described by the assay manufacturer (Loewe Biochemica, Sauerlach, Germany). Supernatant (560 μl) of cultures prepared as described for the elastase assay was mixed with carboxymethyl-chitin-remazol brilliant violet (200 μl) and sodium phosphate buffer (40 μl, 1 M, pH 7.5). The reaction mixture was incubated for 18 h at 40° C. in a waterbath. The reaction was stopped by addition of HCl (200 μl, 2 N) and kept for 15 min on ice. After centrifugation (10 min at 15000 rpm), the absorbance (OD550 nm) of the supernatant was measured. The relative chitinase activity was calculated as OD550 nm/OD600 nm normalized to 1 ml supernatant.

[1] = system: lasB-gfp(ASV) reporter in P. aeruginosa PAO-JP2 biofilm; assay: OdDHL-mediated signalling in PAO-JP2 flowcell biofilm, lasB-gfp(ASV) reporter, CSLM
Protocol: (§1) P. aeruginosa biofilms. Biofilms were grown at 30° C. in three-dimensional flow cells (Christensen et al., 1999) with individual channel dimensions of 0.3×4×40 mm supplied With ABt minimal medium supplemented with 2% LB. The flow system was assembled and prepared as described by Christensen et al. (1999). The substratum consisted of a microscope glass coverslip (Knittel 24×50 mm st1, Knittel Glaser, Braunschweig, Germany). Cultures for inoculation of the flow channels were prepared in the following way: P. aeruginosa strains were streaked on LB plates with the appropriate antibiotics and incubated for 24 h at 37° C. From each plate a single colony was used for inoculation of 10 ml ABt with 10% LB. The cultures were grown at, 30° C. for 18 h before they were diluted to an OD600 nm of 0.1 in sterile 0.9% NaCl and used for inoculation of the flow channels. Medium flow was kept at a constant rate of 3 mL/h, equivalent to a mean flow velocity of 0.7 mm/s, using a Watson-Marlow 205S peristaltic pump (Watson-Marlow, Falmouth, England). Biofilms were grown for 24 hours before being shifted to media containing AHL and furanone.
(§2) Scanning confocal laser microscopy (SCLM). Microscopic inspection and image acquisition were performed an a scanning confocal laser microscope (model TCS4D, Leica Lasertechnik GmbH, Heldelberg, Germany) equipped with a 63×/1.32-0.6 oil objective. The microscope was equipped with a motorized and programmable xy-stage, which was used for monitoring single colonies during the biofilm experiments. At the beginning of each online experiment, the microscope was programmed to track single randomly selected microcolonies; the sensitivity of photo multipliers and the laser intensity were adjusted and thereafter kept constant through out the duration of the experiments. Image scanning was carried out using the 488 nm and 568 nm lines of an Ar/Kr laser for detection of Gfp and Rfp, respectively. Visualization of captured images was performed using the IMARIS software package (Bitplane AG, Zúrich, Switzerland) running on a Silicon Graphics Indigo 2 workstation (Silicon Graphics, Mountain View, Calif. USA).
Inhibition of AHL-mediated signalling in P. aeruginosa biofilms. The lasB-gfp(ASV) reported was integrated into the chromosome of PAO-JP2 to ensure stable segregation and a constant gene dosage of the reported system. The strain was growth in flowcells for 24 hours in ABt-LB medium and a 10-15 μm thick biofilm developed. The media flow was subsequently switched to ABt-LB medium containing the appropriate AHL and furanone concentrations. The development of green fluorescence was monitored online by CSLM for 8 hours.

[2] = system: V. fisheri lux quorum sensing system (LuxR); assay: V. fisheri luxR PluxI-gfp(ASV) reporter in PAO-JP2 biofilm
Protocol: as §1, §2
Repression of LuxR-activated quorum sensing controlled gene transcription. We speculated that the AHL-antagonstic properties of furanone 56 was specific to the P. aeruginosa las quorum sensing system. To test this, a previously published quorum sensing reporter based on the Vibro fisherf luxR gene and Pluxl-gfp(ASV) (Anderson at al, 2001; Wu et al, 2000) was transferred to PAO-JP2.

O=C1C=C/C(=C/Br)O1 [furanone 56]
concentrations without effect on growth (P. aeruginosa PAO1): < 10 µg/mL
effect on growth (P. aeruginosa PAO1; PAO1, concentrations used for this study (up to 10 μg/ml)): no or only little effect on growth
concentrations without effect on growth (P. aeruginosa PAO1; listed as furanone): below 10 μg/ml
chitinase activity (chitinase): close to the uninduced level
induction of green fluorescence in biofilm ([1]; 40 nM OdDHL and 2 μl/ml furanone 56, 8 hours): did not lead to induction of green fluorescence
induction of green fluorescence in biofilm ([1]; 80 nM OdDHL and 2 μg/ml furanone 56): green fluorescence was induced
induction of green fluorescence in biofilm ([1]; 80 nM OdDHL and 4 μg/ml furanone, data not shown): Induction of green fluorescence was established
green fluorescence in biofilm ([1]; 4 μg/ml alone, data not shown): No green fluorescence was observed
green fluorescence of biofilm ([2]; 250 nM OHHL and 15 μg/ml furanone 56, 7 hours): completely disappeared
green fluorescence of biofilm ([2]; 250 nM OHHL and 15 μg/ml furanone 56, six hours): almost completely disappeared
green fluorescence of biofilm ([2]; 250 nM OHHL and 15 μg/ml furanone 56, two hours): significantly less green fluorescent; also recorded: decreased significantly
